Test results published in patent US9662305B2 (REVIVE THERAPEUTICS INC., priority 2012, dated 2017).

Columns and labels:
hyperuricaemic mice = assay: Hyperuricaemic (potassium oxonate) mice: serum and urinary uric acid, urinary creatinine; type: in vivo, mouse
Procedure: A total of 45 C57/Black 6 mice in 9 groups (n=5) were studied for a period of one week. The drugs were dissolved or dispersed in distilled water immediately prior to dosing and administered in a volume of 15 mL/kg by gastric gavage. The volume of drug administered was based on the body weight determined on the day of dosing. […] Whole blood and urine samples were collected 1 h after final drug administration on the seventh day. […] The serum and urine were stored at −80° C. until assayed. The uric acid levels in serum and urine were determined by the phosphotungstic acid method.^54 The creatinine levels in serum were determined spectrophotometrically using standard diagnostic kits.

[1] = test system: mouse peritoneal macrophages; assay: MSU crystal-induced cytokine release from mouse peritoneal macrophages
Procedure: Male C57/BL/6 mice were injected intraperitoneally with 4% thioglycollate solution and the macrophages collected by peritoneal lavage 3 days later.^57 The cells were plated at a density of 7×10^5 cells in 12-well dishes and non-adherent cells were removed after 3 hours. The cells were cultured in RPMI containing 10% FCS, sodium pyruvate, penicillin/streptomycin and L-glutamine. […] The concentration of IL-1β in the supernatant was determined with an R&D systems Quantikine mouse immunoassay.

Male C57/BL/6 mice = assay: Monosodium urate crystal-induced peritoneal inflammation in mice; type: in vivo, mouse; conditions: for decrease of mean neutrophil influx for every increase of 1 μmol/kg of the drug: single drug i.p., MSU crystals 0.5 mg i.p., logarithmic model
Procedure: Colchicine was dissolved in PBS and administered at a dose of 0.05, 0.5 and 5 μmol/kg in a similar fashion. […] The mice were euthanised after 6 hours with CO2 and the peritoneal cells removed by lavage with 10 mL of cold PBS. The lavage fluid was analysed for neutrophil infiltration using a cytospin and Diff-Quick staining. The concentrations of IL-1β and IL-6 in the lavage supernatants was determined using an R&D Systems Quantikine mouse immunoassay.

THP-1 cells = THP-1 cells stimulated with lipopolysaccharide; cited from earlier work
[2] = test system: subjects with acute gout flares; assay: Open-label, active-controlled clinical trial in acute gout flares; conditions: for proportion of subjects with ≧50% reduction in target joint pain score from baseline at 72 hours post-dose: PI-NRS
Procedure: The primary efficacy endpoint is the proportion of patients who responded to treatment. Treatment responders are defined as a ≧50% reduction in target joint pain score from baseline at 72 hours post-dose without using rescue drug. The target joint pain score is an 11-point Pain Intensity Numeric Rating Scale (PI-NRS) used to assess joint pain intensity while experiencing a gout flare on a scale from 0 (no pain) to 10 (worst possible pain).

patients = conditions: febuxostat 80 mg/day; cited from earlier work

## Oc1ncnc2[nH]ncc12 [allopurinol]
Hyperuricaemic mice; allopurinol 5 mg/kg/day, 7 days, to a level below normal baseline
  effect on serum urate: highly significant (p<0.001) drop in serum urate
Hyperuricaemic mice; allopurinol 5 mg/kg/day, level still below normal baseline
  effect on urinary uric acid: highly significant (p<0.001) increase in urinary uric acid

## CC(C)(S)C(=O)N[C@@H](CS)C(=O)O [bucillamine, N-(2-mercapto-2-methylpropionyl)-L-cysteine]
[1]; MSU crystals 50 μg/mL, 6 hours
  decrease in average IL-1β cytokine production with each additional 1 μmol/kg increase: 30.7 pg/mL
  decrease in average IL-6 cytokine production with each additional 1 μmol/kg increase: 13.7 pg/mL
[1]; addition of bucillamine 10 μmol/kg to colchicine
  decrease in average MSU crystal-induced IL-1β production: 65.0%
Male C57/BL/6 mice; after injection of monosodium urate crystals, mouse
  release of IL-1β and IL-6 into the peritoneal cavity: attenuated
Male C57/BL/6 mice; bucillamine 10 μmol/kg added to colchicine, MSU crystals i.p., 6 hours
  effect of addition of bucillamine on average neutrophil influx: highly significant (p<0.001) decrease in average neutrophil influx
Male C57/BL/6 mice; 6 hours
  decrease of mean neutrophil influx for every increase of 1 μmol/kg of the drug: 5.15%
THP-1 cells
  release of TNF-α, IL-1β and IL-8: attenuated
[2]; Arm A, 900 mg, 2/8 subjects
  proportion of subjects with ≧50% reduction in target joint pain score from baseline at 72 hours post-dose: 25%
[2]; Arm B, 1,800 mg, 6/9 subjects
  proportion of subjects with ≧50% reduction in target joint pain score from baseline at 72 hours post-dose: 67%
[2]; Arm B, 1,800 mg, all subjects, seven-day treatment period
  use of rescue medication: completed the treatment period without the use of rescue medication
Hyperuricaemic mice; bucillamine alone, 7 days, dose-response slope
  increase of mean urinary uric acid for each increase of 1 mg/kg/day: 0.079 mg/dL
Hyperuricaemic mice; bucillamine alone, gastric gavage, 7 days, dose-response slope
  reduction of mean serum urate for each increase of 1 mg/kg/day: 0.0067 mg/dL

## COc1cc2c(c(OC)c1OC)-c1ccc(OC)c(=O)cc1[C@@H](NC(C)=O)CC2 [colchicine]
[1]; colchicine alone, logarithmic model
  decrease of average MSU crystal-induced IL-1β production for every increase of 1 μmol/kg: 29.6%
Male C57/BL/6 mice; 6 hours
  decrease of mean neutrophil influx for every increase of 1 μmol/kg of the drug: 18.3%
[2]; Arm C, 1.8 mg, 5/12 subjects
  proportion of subjects with ≧50% reduction in target joint pain score from baseline at 72 hours post-dose: 42%
[2]; any of the treatment arms, seven-day treatment period
  related serious adverse events: No related serious adverse events

## Cc1nc(-c2ccc(OCC(C)C)c(C#N)c2)sc1C(=O)O [febuxostat]
patients
  patients who previously failed to normalise uric acid levels (<360 μmol/L) on allopurinol and also failed: 59%
